Test results reported in PMC8786932, “Bicyclic azetidines target acute and chronic stages of Toxoplasma gondii by inhibiting parasite phenylalanyl t-RNA synthetase” (Nature Communications, 2022).
Where “and” joins values, the source holds several entries; their conditions need not be identical. Identical values can stand only once. Like-named read-outs stand apart in the source and are kept apart here.

Tests used:
C. parvum = C. parvum mouse model; cited from earlier work
recombinant HsPheRS = molecular target: T1, recombinant HsPheRS (Homo sapiens, UniProt Q9Y285); experiment: Malachite green aminoacylation enzyme assay, HsPheRS; conditions: for Hu PheRS enzyme assay raw signal: replicates
T1 sequence (Q9Y285 1-508): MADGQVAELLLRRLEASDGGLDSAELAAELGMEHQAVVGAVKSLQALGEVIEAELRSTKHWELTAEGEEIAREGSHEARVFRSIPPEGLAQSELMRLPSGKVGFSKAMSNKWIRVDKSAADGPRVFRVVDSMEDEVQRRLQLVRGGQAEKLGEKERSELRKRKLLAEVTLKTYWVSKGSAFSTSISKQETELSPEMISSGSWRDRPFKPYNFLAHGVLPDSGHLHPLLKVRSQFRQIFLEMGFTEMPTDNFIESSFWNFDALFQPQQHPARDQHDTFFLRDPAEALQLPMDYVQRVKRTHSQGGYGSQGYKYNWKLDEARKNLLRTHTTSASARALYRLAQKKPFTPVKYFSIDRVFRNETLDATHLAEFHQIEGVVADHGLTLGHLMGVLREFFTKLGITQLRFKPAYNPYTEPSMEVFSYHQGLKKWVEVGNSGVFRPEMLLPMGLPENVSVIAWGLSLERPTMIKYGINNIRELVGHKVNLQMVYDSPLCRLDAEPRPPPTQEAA
T1 sequence (Q9NSD9 1-589 partner): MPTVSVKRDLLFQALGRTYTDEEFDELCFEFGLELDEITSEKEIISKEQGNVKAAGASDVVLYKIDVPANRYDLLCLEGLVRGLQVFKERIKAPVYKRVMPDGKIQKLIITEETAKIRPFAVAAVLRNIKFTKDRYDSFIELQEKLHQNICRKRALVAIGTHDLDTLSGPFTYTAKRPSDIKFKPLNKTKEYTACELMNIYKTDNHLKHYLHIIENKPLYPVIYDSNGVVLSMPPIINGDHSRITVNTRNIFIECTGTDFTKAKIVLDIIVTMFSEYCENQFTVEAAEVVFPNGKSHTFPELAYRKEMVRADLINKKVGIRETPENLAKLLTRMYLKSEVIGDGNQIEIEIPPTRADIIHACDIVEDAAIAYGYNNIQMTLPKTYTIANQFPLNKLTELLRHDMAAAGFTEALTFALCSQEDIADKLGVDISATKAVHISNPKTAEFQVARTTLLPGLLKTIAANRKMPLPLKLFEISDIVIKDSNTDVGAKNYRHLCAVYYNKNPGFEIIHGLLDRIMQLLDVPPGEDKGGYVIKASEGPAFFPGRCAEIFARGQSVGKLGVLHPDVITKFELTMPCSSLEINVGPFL

[1] = system: T. gondii RHΔΔ TgPheRS[V262A]; experiment: Tachyzoite lytic assay, V262A mutant; format: cell-based; conditions: Toxoplasma gondii
Procedure: In vitro cultures of HFF cells containing mature vacuoles were scraped, passaged through 23 g blunt end needles, and filtered using 3 micron filters. Purified parasites were resuspended in 350 μL of cytomix plus[49] and combined in a BTX 4 mm gap cuvette with 30 μL of PCR amplified templates corresponding to mutations of interest and 10 μg of pSAG1:Cas9-GFP U6:sgTgPheRS^[mut] (in 20 μL, 400 μL total volume, see Supplementary Data 1 for sgRNA sequences) prior to electroporation using a BTX ETM 830 electroporator. Amplified templates for TgPheRS mutations were generated from gBlocks (Integrated DNA Technologies, Coralville, IA, USA) that contain a BclI restriction site that replaces the PAM sequence to protect the repair template from being cut by Cas9. […]
Parasite growth on HFF monolayers was monitored using a 96-well plate-based lytic assay modified from a previously described protocol. […] Plates were rinsed with water, air dried, and absorption quantified on the Cytation 3 multi-mode imager at 570 nm wavelength. % parasite growth was calculated as 100−[(OD value for infected cultures at each concentration of compound/average OD value for no compound and no parasite infection) × 100]. EC50 values were calculated based on the mean of three biological replicates with each replicate containing two technical replicates.

| SMILES | reduction of oocyst shedding (C. parvum) | IC50 (recombinant HsPheRS) | Hu PheRS enzyme assay raw signal (recombinant HsPheRS; BRD7929 0.000001 μM) | Hu PheRS enzyme assay raw signal (recombinant HsPheRS; BRD7929 0.000010 μM) | Hu PheRS enzyme assay raw signal (recombinant HsPheRS; BRD7929 0.000100 μM) | Hu PheRS enzyme assay raw signal (recombinant HsPheRS; BRD7929 0.001000 μM) | Hu PheRS enzyme assay raw signal (recombinant HsPheRS; BRD7929 0.010000 μM) | Hu PheRS enzyme assay raw signal (recombinant HsPheRS; BRD7929 0.100000 μM) | Hu PheRS enzyme assay raw signal (recombinant HsPheRS; BRD7929 1.000000 μM) | Hu PheRS enzyme assay raw signal (recombinant HsPheRS; BRD7929 10.000000 μM) | Hu PheRS enzyme assay raw signal (recombinant HsPheRS; BRD7929 100.000000 μM) | EC50 ([1]; 72 h, read-out: EC50, V262A) | EC50 ([1]; read-out: EC50 (growth restriction)) |
| --- | --- | --- | --- | --- | --- | --- | --- | --- | --- | --- | --- | --- | --- |
| COc1ccc(NC(=O)N2CCCCN3[C@H](CO)[C@H](c4ccc(C#Cc5ccccc5)cc4)[C@@H]3C2)cc1 [BRD3444] | 96% | – | – | – | – | – | – | – | – | – | – | – | – |
| COc1ccc(NC(=O)N2CCCCN3[C@H](CN(C)C)[C@H](c4ccc(C#Cc5ccccc5)cc4)[C@@H]3C2)cc1 [BRD7929] | – | 22.3 µM | 0.7213 and 0.8235 and 0.7680 | 0.6210 and 0.7246 and 0.7585 | 0.6366 and 0.8166 and 0.8094 | 0.7178 and 0.7568 and 0.6293 | 0.4951 and 0.5827 and 0.6166 | 0.5035 and 0.5467 and 0.5776 | 0.4827 and 0.4553 and 0.5046 | 0.4350 and 0.4477 and 0.4390 | 0.4107 and 0.4228 and 0.4405 | 202 nM | 159 nM |
